The record followed here is ChEMBL document CHEMBL1201862, “PubChem BioAssay data set” (2004).

Among the test systems are KM-20L2; HOP-18; DLD-1; DMS-273; SNB-78; LXFL 529; RXF 631; XF498; DMS-114.
Common to all, as to assay: growth of human tumour cells (NCI), 48 h

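48-hour exposure; five concentrations; linearly interpolated endpoints. GI50 = concentration required for 50% inhibition of growth.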 Activity calls are given as the source filed them. No stated cut-off is given here; in the data, active = GI50 up to about 1.1 µM and inactive = higher.

For `CC(C)(C)c1cc(CCC(=O)Nc2ccc(Cl)cc2)nc(NC#N)n1`, the GI50 in the test with KM-20L2, in the test with HOP-18, in the test with DLD-1, with DMS-273, in the test on SNB-78 and with LXFL 529 was > 100 µM (inactive) each time.
Consider `CO[C@@H]1[C@H](OC(=O)NC(=O)CCl)CC[C@]2(CO2)[C@H]1[C@@]1(C)O[C@@H]1CC=C(C)C` [O-CHLOROACETYLCARBAMOYLFUMAGILLOL], for which the GI50 is 16.6 µM (inactive) in the test with KM-20L2; > 10 µM (inactive) in the test on HOP-18; 1.67 µM (inactive) in the test with RXF 631; 8.83 µM (inactive) in the test on DLD-1; 7.11 µM (inactive) with DMS-273; > 10 µM (inactive) in the test with SNB-78. Moreover, the results for the GI50 in the test on XF498, with DMS-114 and in the test with LXFL 529 were 6.35 µM (inactive), 7.03 µM (inactive) and 1.78 µM (inactive), respectively.
As for `CCCCCCCCCc1cc(=O)c2c(O)cccc2o1`, the GI50 in the test on HOP-18 is > 100 µM (inactive); with RXF 631, 65.6 µM (inactive); in the test on DLD-1, 61.8 µM (inactive); in the test with DMS-273, 41.8 µM (inactive); in the test on SNB-78 it was 53 µM (inactive); in the test on XF498, 31.2 µM (inactive). For the same molecule, the GI50 in the test with DMS-114 was 33 µM (inactive); with LXFL 529 it was 39.2 µM (inactive).
Turning to `C[N+](C)(C)CC(=O)N/N=C/c1oc(-c2cccc([N+](=O)[O-])c2)c(-c2cccc([N+](=O)[O-])c2)c1[N+](=O)[O-]`, the GI50 was > 100 µM (inactive) with KM-20L2, 49.7 µM (inactive) in the test with RXF 631, 64.4 µM (inactive) in the test with DLD-1 and 47.3 µM (inactive) in the test with DMS-114.
`COC(=O)Cc1cc(OC)c(OC)cc1Br`: the GI50 in the test on KM-20L2, in the test on DLD-1, in the test with SNB-78, in the test on DMS-114 and in the test on LXFL 529 was > 100 µM (inactive) in each case.
In the case of `CC(=O)Nc1ccc(Cl)c(Cl)c1`, the GI50 with KM-20L2, with DLD-1, in the test on DMS-273, in the test with SNB-78, in the test with DMS-114 and in the test with LXFL 529 was > 100 µM (inactive) in each case.
With `C[S+](C)C1(c2ccccc2)C(=O)c2ccccc2C1=O`, the GI50 was > 100 µM (inactive) in the test on KM-20L2; > 100 µM (inactive) in the test with HOP-18; > 100 µM (inactive) in the test with DLD-1; > 100 µM (inactive) with DMS-273; > 100 µM (inactive) in the test with SNB-78; 32.4 µM (inactive) with XF498. For the same molecule, the GI50 in the test with DMS-114 and in the test with LXFL 529 was > 100 µM (inactive) throughout.
For the molecule `NC1=NN(c2ccccc2)C(=O)C1/C(=N\NC(=O)c1cc2ccccc2cc1O)C(=O)Nc1ccc(Cl)c(Cl)c1` (configuration not stated), the GI50 with KM-20L2 was 32.5 µM (inactive); in the test on HOP-18 it was 31.6 µM (inactive); in the test on DLD-1, 30.5 µM (inactive); with DMS-273 it was 11.6 µM (inactive); in the test on SNB-78, 23.8 µM (inactive); in the test with XF498 it was 25.1 µM (inactive). The GI50 in the test with DMS-114 is 25.2 µM (inactive); in the test with LXFL 529, 34.4 µM (inactive).
Regarding `CSc1s[s+]c(SC)c1[O-]`, the GI50 with KM-20L2 is 80.7 µM (inactive); with HOP-18, > 100 µM (inactive); with RXF 631, 19.2 µM (inactive); in the test with DLD-1, 16.5 µM (inactive); in the test with DMS-273 it was 27.4 µM (inactive); with SNB-78 it was 55.1 µM (inactive). Further, the GI50 with XF498 was 45.8 µM (inactive); in the test with DMS-114, 17.5 µM (inactive); in the test with LXFL 529, 18.7 µM (inactive).
With `Cc1ccc(C(=O)OC(C)C)cc1/N=N/N(C)C`, the GI50 with KM-20L2 is 55.5 µM (inactive); in the test with DLD-1 it was > 100 µM (inactive); in the test on DMS-273, 56.5 µM (inactive); with SNB-78, 55.3 µM (inactive); in the test on LXFL 529 it was 66.5 µM (inactive).
Turning to `CCP(C)(C)=O`, the GI50 in the test on KM-20L2, in the test with DLD-1, in the test with DMS-273, in the test with SNB-78, in the test with XF498 and with DMS-114 was > 100 µM (inactive) in each case. Also, the GI50 with LXFL 529 was > 100 µM (inactive).
Consider `O=C1C=C(Nc2ccc(Br)cc2)c2ccccc2C1=O`, for which the GI50 in the test on KM-20L2 is 23 µM (inactive); in the test on DMS-273, 12.2 µM (inactive); with DMS-114, 4.65 µM (inactive); in the test on LXFL 529, 12.5 µM (inactive).
Regarding `CC(C)N(C(=O)C12C3C4C1C1C2C3C41C(=O)O)C(C)C` (configuration not stated), the GI50 in the test with KM-20L2, in the test on DLD-1, with DMS-273, in the test with DMS-114 and in the test with LXFL 529 was > 100 µM (inactive) throughout.
Take `COC(=O)C1=C(c2ccc3c(c2)OCO3)O[C@H](c2ccc3c(c2)OCO3)[C@H]1COC(C)=O`: the GI50 with KM-20L2 was 71.1 µM (inactive); in the test with HOP-18 it was 36.6 µM (inactive); in the test with DLD-1, 35.7 µM (inactive); in the test with DMS-273 it was 56.2 µM (inactive); in the test with SNB-78, 66.1 µM (inactive); in the test on XF498 it was 41.8 µM (inactive). Besides, the GI50 in the test on DMS-114 was 57.9 µM (inactive); in the test with LXFL 529 it was 32.3 µM (inactive).
With `CCOC(=O)Nc1cc2nnc(-c3ccccc3)nc2c(N)n1`, the GI50 with KM-20L2 was 4.25 µM (inactive); in the test on DLD-1, 18.6 µM (inactive); in the test on DMS-273 it was 7.36 µM (inactive); in the test with XF498, 31.4 µM (inactive); in the test with DMS-114, 27.6 µM (inactive); in the test on LXFL 529, 32.1 µM (inactive).
Take `O=c1[c-](-c2ccccc2)[se]c(-c2ccccc2)[n+]1-c1ccccc1`: the GI50 with HOP-18 was 11.5 µM (inactive); with RXF 631 it was 13.6 µM (inactive); with DLD-1, 2 µM (inactive); in the test on DMS-273 it was 19.1 µM (inactive); with SNB-78, 3.81 µM (inactive); in the test with DMS-114 it was 4.69 µM (inactive). Moreover, the GI50 with LXFL 529 was 13.5 µM (inactive).
Consider `O=C(O)/C(=C/c1ccccc1[N+](=O)[O-])c1ccccc1`, for which the GI50 in the test on KM-20L2, in the test on RXF 631, in the test with DLD-1, with DMS-273, in the test on SNB-78 and with XF498 was > 100 µM (inactive) in each case. The GI50 with DMS-114 and with LXFL 529 was > 100 µM (inactive) in each case.
Consider `COC1/C=C\C=C(/C)C(=O)NC2=CC(=O)C(NCCCl)=C(CC(C)CC(OC)C(O)C(C)/C=C(/C)C1OC(N)=O)C2=O` (configuration not stated), for which the GI50 is 0.0134 µM (active) in the test on KM-20L2; 0.0308 µM (active) in the test on HOP-18; 0.0266 µM (active) with DLD-1; 0.053 µM (active) with DMS-273; 0.655 µM (active) with SNB-78; 0.659 µM (active) in the test on XF498. Moreover, the GI50 in the test on DMS-114 is 0.0296 µM (active); in the test with LXFL 529, 0.0298 µM (active).
Turning to `NC1=NS(=O)(=O)Nc2[nH]c(-c3ccccc3)nc21`, the GI50 in the test on KM-20L2, in the test with HOP-18, in the test with DLD-1, with DMS-273, with SNB-78 and with XF498 was > 100 µM (inactive) each time. Further, the GI50 with DMS-114 and with LXFL 529 was > 100 µM (inactive) each time.
Consider `N#CCc1ccc(/C(C#N)=C2/OC(=N)C(c3ccc(CC#N)cc3)C2=O)cc1` (configuration not stated), for which the GI50 in the test on KM-20L2, in the test on RXF 631, in the test with DLD-1, in the test on DMS-273, in the test with SNB-78 and in the test with XF498 was > 100 µM (inactive) each time. For the same molecule, the GI50 in the test on DMS-114 and in the test on LXFL 529 was > 100 µM (inactive) in each case.
As for `COC(=O)C12OCC34C(CC5C(C)=CC(=O)C(O)C5(C)C3C(O)C1O)OC(=O)C(OC(=O)CC(C)C)C24` (configuration not stated), the GI50 in the test with KM-20L2 was 0.00288 µM (active); with DLD-1 it was 0.00149 µM (active); with DMS-273 it was 0.000401 µM (active); in the test on SNB-78, 0.00346 µM (active); in the test on XF498, 0.00116 µM (active); with DMS-114 it was 0.000659 µM (active). In the test with LXFL 529, the GI50 was < 0.0255 µM (active).
As for `Cc1cc2c(cc1C)[n+]([O-])c(C(=O)C/C(=N/NC(=O)CC#N)C(=O)Nc1ccccc1C(F)(F)F)c(C)[n+]2[O-]`, the GI50 is 37.5 µM (inactive) with KM-20L2; > 100 µM (inactive) with HOP-18; 16.9 µM (inactive) in the test on RXF 631; 53.6 µM (inactive) in the test on DMS-273; 2.59 µM (inactive) with SNB-78; 82.2 µM (inactive) in the test with XF498. In addition, the GI50 in the test on DMS-114 was 28.6 µM (inactive); with LXFL 529, 45.6 µM (inactive).
